Measured values from US11135186B2, “Regulators of the endoplasmic reticulum proteostasis network” (The Scripps Research Institute, priority 2015, dated 2021).

Assays:
ATF6 = assay: Immunoblot of the 50 kDa ATF6 fragment; type: cell-based; details: immunoblotting
Experimental: For immunoblotting, cells were lysed in 50 mM Tris buffer, pH 7.5 containing 0.1% TritonX (Fisher Scientific) and supplemented with protease inhibitor cocktail (Roche). For immunoblots of endogenous ATF6, cells were washed in PBS containing protease inhibitor cocktail and 10 μM MG-132 and subsequently lysated in 1× Laemmli buffer, supplemented in the same way, by repeating cycles of boiling and vortexing. Protein lysate concentrations were normalized by Bradford assays (Bio-Rad). Lysates or media were boiled for 10 min in Laemmli buffer+100 mM DTT before loading onto SDS-PAGE gel. Proteins were transferred from gel slabs to nitrocellulose, and the Odyssey Infrared Imaging System (Li-Cor Biosciences) was used to detect proteins of interest.

[1] = system: GFP-ATF6 in U2OS-GFP-ATF6 cells; assay: ATF6 nuclear localization, high-content imaging; type: cell-based; details: 10 μM, 5 h
Experimental: 300 μL of 1.375×10^4 U2OS-GFP-ATF6 cells per ml were plated per well in 96 well imaging plate (ibidi 89626) and sealed with breathable seals (E&K Scientific T896100) two days prior to drug addition. Immediately prior to addition to cells, compounds were diluted to 6× in media from 500×DMSO stock and 60 μL 6× was added to cells for 1× final (0.2% DMSO).
After 5h, media was removed and cells were fixed in 4% PFA (Electron Microscopy Sciences 15714) in PHEM buffer (60 mM PIPES, 25 mM HEPES, 10 mM EGTA, 2 mM MgCl2-hexahydrate, pH 6.9) for 15 minutes at RT. […]
Images were analyzed using CellProfiler^7, MATLAB R2014a and GraphPad Prism 5. […] The ratio of the GFP intensity in the nucleus versus the ER was calculated for each cell and plotted as a histogram per well. A threshold for the minimum ratio of nuclear to ER signal corresponding to an activated (i.e. nuclear localized ATF6) cell was calculated as the minimum nuclear: ER ratio greater than 1 where the number of ER stressed cells (Tg) was greater than the corresponding unstressed control. Percent activation per well was calculated as the percentage of cells per well with a nuclear: ER ratio greater than the calculated threshold for that plate. […]

ALMC-2 cells = assay: ALMC-2 cell viability (CellTiter-Glo); type: cell-based, human; details: 10 μM
Experimental: HepG2 cells were plated at 5,000 cells/well in a translucent, flat-bottomed 96 well plate, and treated for 48 hr with vehicle, 10 μM Tg or 10 μM ER proteostasis regulator. ALMC-2 or KAS-6/1 cells were plated at 33,000 cells/well in 96-well plates then treated with proteostasis regulators for 16 h as described. Cell metabolic activity was measured using the CellTiter-Glo assay (Promega), which reports on intracellular ATP concentration. CellTiter-Glo reagent was added to cell culture media at a 1:1 ratio and incubated for 2 minutes on an orbital shaker to induce cell lysis. The plate was then incubated at room temperature for 10 minutes to stabilize the luminescent signal and read on a Tecan F200 Pro microplate reader.

[2] = system: ALLC (amyloidogenic light chain); assay: ALLC secretion from ALMC-2 cells after cycloheximide administration; type: cell-based, human; details: absence of new protein synthesis
[3] = system: ERSE-FLuc reporter (ATF6 arm of the UPR); assay: ERSE-FLuc reporter, 96-well, HEK293T-Rex cells (SAR and S1P inhibition); type: cell-based; details: HEK293T-Rex; 10 μM
Experimental: HEK293T-Rex cells incorporating the ERSE-FLuc reporter and HEK293^DAX cells were plated approximately 20,000 cells/well in flat-bottomed, black 96-well assay plates (Costar, Corning, Inc.) overnight prior to compound administration. Cells were treated with compounds as described for 12-18 h then the plates were equilibrated to room temperature and 50 μL of SteadyLite (PerkinElmer) was added to each well. Luminescence activity was measured in a Safire II microplate reader with a 1000 ms integration time.

Row | SMILES | accumulation of the 50 kDa ATF6 fragment (S1P/S2P proteolysis) (ATF6) | nuclear fraction of ATF6-GFP (ATF6 nuclear translocation) [1] | reduction in cell viability (ALMC-2 cells) [%] | reduction in ALLC secretion after cycloheximide [2] [%] | cell viability (in words) (ALMC-2 cells) | ERSE reporter activity relative to 263 [3]
1 | Cc1ccc(O)c(N/C=C/C(=O)c2ccc(F)cc2)c1 [Compound 132] | increased accumulation | significantly increased | 45 | – | – | –
2 | Cc1ccc(O)c(NC(=O)CCc2ccccc2)c1 [Compound 147] | – | – | – | ~30 | do not significantly affect | –
3 | O=[N+]([O-])c1ccc(N/N=C/c2ccccc2O)cc1 [Compound 263] | increased accumulation | significantly increased | – | – | – | slightly increase
